Source: patent publication US9586986B2, “Substituted 7-deazapurine ribonucleosides for therapeutic uses” (Institute of Organic Chemistry and Biochemistry ASCR, v.v.i., priority 2014, dated 2017)

What was measured:
Type in all cases: cell-based
MRC-5 = assay: Cytostatic/cytotoxic MTT assay, MRC-5 fibroblasts; settings: Homo sapiens, MRC5; non-malignant fibroblasts, 72 h; read-out: MTT, IC50 MRC-5
Description: (§1) Unless otherwise stated, all cells were purchased from the […] (ATCC). The CCRF-CEM line is derived from T lymphoblastic leukemia, evincing high chemosenzitivity, K562 represent cells from a […] patient sample with bcr-abl translocation, HCT116 is colorectal tumor cell line and its p53 gene knock-down counterpart (HCT116p53−/−, Horizon Discovery, UK) is a model of human cancers with p53 inactivation frequently associated with poor prognosis, A549 cell line is lung adenocarcinoma. The daunorubicin resistant subline of CCRF-CEM cells (CEM-DNR bulk) and paclitaxel resistant subline K562-TAX were selected in our laboratory by cultivation of maternal cell lines in increasing concentrations of daunorubicine or paclitaxel, respectively. The CEM-DNR cells overexpress mrp-1 and mdr-1 genes, while K562-TAX cells overexpress mdr-1 only. Both proteins belong to the family of ABC transporters and are involved in the primary and/or acquired multidrug resistance phenomenon (ref.: Gottesman, M. M.; Fojo, T.; Bates, S. E. Multidrug resistance in cancer: role of ATP-dependent transporters. Nat. Rev. Cancer. 2002, 2, 48-58. (b) Noskova, V.; Dzubak, P.; Kuzmina, G.; Ludkova, A.; Stehlik, D.; Trojanec, R.; Janostakova, A.; Korinkova, G.; Mihal, V.; Hajduch, M. In vitro chemoresistance profile and expression/function of MDR associated proteins in resistant cell lines derived from CCRF-CEM, K562, A549 and MDA MB 231 parental cells. Neoplasma 2002, 49, 418-425). Non-malignant MRC-5 and BJ cells, derived from normal human fibroblasts, were used as controls. The cells were maintained in Nunc/Corning 80 cm^2 plastic tissue culture flasks and cultured in cell culture medium (DMEM/RPMI 1640 with 5 g/L glucose, 2 mM glutamine, 100 U/mL penicillin, 100 µg/mL streptomycin, 10% fetal calf serum, and NaHCO3). Cell suspensions were prepared and diluted according to the particular cell type and the expected target cell density (25,000-30,000 cells/well based on cell growth characteristics). Cells were added by pipette (80 L) into 96-well microtiter plates. Inoculates were allowed a pre-incubation period of 24 h at 37° C. and 5% CO2 for stabilization. Four-fold dilutions, in 20-L aliquots, of the intended test concentration were added to the microtiter plate walls at time zero. All test compound concentrations were examined in duplicate. Incubation of the cells with the test compounds lasted for 72 h at 37° C., in a 5% CO2 atmosphere at 100% humidity. At the end of the incubation period, the cells were assayed using MTT. Aliquots (10 L) of the MTT stock solution (5 mg/ml) were pipetted into each well and incubated for another 1-4 h. After this incubation period the formazan produced was dissolved by addition of 100 µL/well of 10% aq SDS (pH 5.5), followed by a further incubation at 37° C. overnight. The optical density was measured at 540 nm. The IC50 value, the drug concentration inhibiting the cell growth by 50%, was calculated from appropriate dose-response curves.
(§2) In vitro cytotoxic/cytostatic activity final nucleosides 1-5 was initially evaluated against […] cell lines derived from human solid tumors including lung (A549 cells) and colon (HCT116 and HCT116p53−/−) carcinomas, as well as leukemia cell lines (CCRF-CEM, CEM-DNR, K562 and K562-TAX) and, for comparison, non-malignant BJ and MRC-5 fibroblasts. Concentrations inhibiting the cell growth by 50% (IC50) were determined using a quantitative metabolic staining with 3-(4,5-dimethylthiazol-2-yl)-2,5-diphenyltetrazolium bromide (MTT) (ref.: Denizot, F.; Lang, R. Rapid colorimetric assay for cell growth and survival: Modifications to the tetrazolium dye procedure giving improved sensitivity and reliability. J. Immunol. Meth. 1986, 89, 271-277) following a 3-day treatment.

[1] = test system: HCV subtype 2A replicon in Huh-7 cells; assay: HCV sub-genomic reporter replicon assay, subtype 2A; settings: Hepatitis C virus; Huh-7 cells, HCV subtype 2A replicon; read-out: Replicon 2A EC50
Description: (§3) Compounds were also tested in Huh-7 cells harboring sub-genomic reporter replicons derived from HCV subtypes 1B and 2A (ref.: Stuyver, L. J.; Whitaker, T.; McBrayer, T. R.; Hernandez-Santiago, B. I.; Lostia, S.; Tharnish, P. M.; Ramesh, M.; Chu, C. K.; Jordan, R.; Shi, J. X.; Rachakonda, S.; Watanabe, K. A.; Otto, M. J.; Schinazi, R. F. Antimicrob. Agents Chemother. 2003, 47, 244-254).

[2] = test system: Huh-7 cells harboring replicon 2A; assay: Cytotoxicity in replicon 2A cells; settings: HCV subtype 2A replicon
Description: as §3

CCRF-CEM = assay: Cytostatic/cytotoxic MTT assay, CCRF-CEM; settings: Homo sapiens, 72 h incubation, read-out: MTT, IC50 CCRF-CEM
Description: as §1, §2

CEM-DNR-bulk = assay: Cytostatic/cytotoxic MTT assay, CEM-DNR-bulk; settings: Homo sapiens; daunorubicin resistant subline, 72 h; read-out: MTT, IC50 CEM-DNR-bulk
Description: as §1, §2
(§4) Multidrug resistance is a major therapeutic problem in cancer chemotherapy. […]

K562 = assay: Cytostatic/cytotoxic MTT assay, K562; settings: Homo sapiens, K562; 72 h incubation; read-out: MTT, IC50 K562
Description: as §1, §2

HCT116p53-/- = assay: Cytostatic/cytotoxic MTT assay, HCT116p53-/-; settings: Homo sapiens, HCT-116; 72 h incubation; read-out: MTT, IC50 HCT116 p53-/-
Description: as §1, §2, §4

[3] = test system: HCV subtype 1B replicon in Huh-7 cells; assay: HCV sub-genomic reporter replicon assay, subtype 1B; settings: Hepatitis C virus; Huh-7 cells, HCV subtype 1B replicon; read-out: Replicon 1B EC50
Description: as §3

[4] = test system: Huh-7 cells harboring replicon 1B; assay: Cytotoxicity in replicon 1B cells; settings: HCV subtype 1B replicon
Description: as §3

K562-TAX = assay: Cytostatic/cytotoxic MTT assay, K562-TAX; settings: Homo sapiens, paclitaxel resistant subline, 72 h, read-out: MTT, IC50 K562-TAX
Description: as §1, §2, §4

A549 = assay: Cytostatic/cytotoxic MTT assay, A549; settings: Homo sapiens, A549; 72 h incubation; read-out: MTT, IC50 A549
Description: as §1, §2

| SMILES | IC50 (MRC-5) [µM] | EC50 [1] [µM] | CC50 [2] [µM] | IC50 (CCRF-CEM) [µM] | IC50 (CEM-DNR-bulk) [µM] | IC50 (K562) [µM] | IC50 (HCT116p53-/-) [µM] | EC50 [3] [µM] | CC50 [4] [µM] | IC50 (K562-TAX) [µM] | IC50 (A549) [µM] |
| --- | --- | --- | --- | --- | --- | --- | --- | --- | --- | --- | --- |
| COc1ncnc2c1c(-c1ccsc1)cn2[C@@H]1O[C@H](CO)[C@@H](O)[C@H]1O [Compound 1d, 4-Methoxy-7-(β-D-ribofuranosyl)-5-(thiophen-3-yl)-7H-pyrrolo[2,3-d]pyrimidine] | 75.3 | > 44 | > 44 | 2.57 | 7.64 | 0.09 | 0.14 | 0.55 | > 44 | 3.45 | 5.17 |
| Cc1ncnc2c1c(-c1ccccc1)cn2[C@@H]1O[C@H](CO)[C@@H](O)[C@H]1O [Compound 5e, 4-Methyl-5-phenyl-7-(β-D-ribofuranosyl)-7H-pyrrolo[2,3-d]pyrimidine] | > 100 | > 44 | > 44 | > 20 | > 20 | > 20 | 95.3 | 34.8 | > 44 | > 20 | > 20 |
| COc1ncnc2c1c(-c1cc3ccccc3o1)cn2[C@@H]1O[C@H](CO)[C@@H](O)[C@H]1O [Compound 1f, 5-(Benzofuran-2-yl)-4-methoxy-7-(β-D-ribofuranosyl)-7H-pyrrolo[2,3-d]pyrimidine] | 65.6 | 10.2 | > 44 | 5.37 | 10.8 | 20.9 | 14.5 | 2.64 | > 44 | 13.1 | 17.7 |
| CN(C)c1ncnc2c1c(I)cn2[C@@H]1O[C@H](CO)[C@@H](O)[C@H]1O [Compound 4h, 4-Dimethylamino-5-iodo-7-(β-D-ribofuranosyl)-7H-pyrrolo[2,3-d]pyrimidine] | 91.7 | > 44 | > 44 | 1.59 | 0.1 | 0.07 | 0.12 | 0.69 | > 44 | 0.05 | 0.34 |
| CSc1ncnc2c1c(-c1ccco1)cn2[C@@H]1O[C@H](CO)[C@@H](O)[C@H]1O [Compound 2a, 5-(Furan-2-yl)-4-methylsulfanyl-7-(β-D-ribofuranosyl)-7H-pyrrolo[2,3-d]pyrimidine] | 73.9 | 0.05 | > 44 | 0.05 | 0.23 | 0.04 | 0.01 | 0.07 | 38.6 | 0.21 | 0.05 |
